# Measurements reported in article PMC6811774, “Potent, selective, and subunit‐dependent activation of TRPC5 channels by a xanthine derivative” (British Journal of Pharmacology, 2019).
# Several values for one entry are separate records, joined by “and”; a condition that tells them apart may be missing. Equal entries are not always repeated. Where two headings read alike, the source gives them in different places.
# Biological target: T1, TRPC5:C5 channels (hTRPC5) (Homo sapiens, UniProt Q9UL62)
# T1 construct: expressed in transfected cells
# T1 sequence (Q9UL62 1-973): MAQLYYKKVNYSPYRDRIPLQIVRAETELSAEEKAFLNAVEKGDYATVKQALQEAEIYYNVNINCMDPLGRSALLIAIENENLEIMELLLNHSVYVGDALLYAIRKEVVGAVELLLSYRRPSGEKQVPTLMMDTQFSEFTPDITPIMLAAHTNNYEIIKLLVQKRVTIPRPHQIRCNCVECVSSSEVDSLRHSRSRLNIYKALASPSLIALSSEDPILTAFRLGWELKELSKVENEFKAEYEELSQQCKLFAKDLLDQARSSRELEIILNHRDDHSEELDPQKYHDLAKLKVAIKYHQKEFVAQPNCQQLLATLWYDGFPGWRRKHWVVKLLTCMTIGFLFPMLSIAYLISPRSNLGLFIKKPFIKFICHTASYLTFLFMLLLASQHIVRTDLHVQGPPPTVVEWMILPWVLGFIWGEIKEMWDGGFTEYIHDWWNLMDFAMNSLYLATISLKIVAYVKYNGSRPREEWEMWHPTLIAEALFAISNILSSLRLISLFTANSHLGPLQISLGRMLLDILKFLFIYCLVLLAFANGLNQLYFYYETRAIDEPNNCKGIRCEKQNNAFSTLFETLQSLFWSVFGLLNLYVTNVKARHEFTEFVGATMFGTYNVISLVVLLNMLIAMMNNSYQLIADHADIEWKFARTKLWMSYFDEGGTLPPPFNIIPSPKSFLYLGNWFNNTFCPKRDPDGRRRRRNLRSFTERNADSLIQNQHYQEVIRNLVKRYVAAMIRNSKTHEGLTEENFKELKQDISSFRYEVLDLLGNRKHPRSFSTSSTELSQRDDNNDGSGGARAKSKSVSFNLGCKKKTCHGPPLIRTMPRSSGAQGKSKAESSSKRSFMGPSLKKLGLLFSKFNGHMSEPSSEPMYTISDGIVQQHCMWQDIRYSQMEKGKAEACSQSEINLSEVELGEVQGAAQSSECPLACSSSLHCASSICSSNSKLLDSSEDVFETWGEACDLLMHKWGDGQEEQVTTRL
# Test: [Ca2+]i measurement (Fura-2, FlexStation) in (Tet+) HEK T-REx cells expressing hTRPC5
# Assay type: cell-based
# Description: HEK T‐REx™ cell line was transfected with TRPC5‐SYFP2 or TRPC4‐SYFP2 using FuGENE® HD transfection reagent. After 48 hr, cells were put under antibiotic selection using 400 μg·ml^−1 zeocin and 10 μg·ml^−1 blasticidin S (Invivogen, San Diego, California, USA). Medium changes were carried out regularly to remove dead cells. HEK T‐REx cells expressing tetracycline‐inducible human TRPC5, TRPC4–C1, and TRPC5–C1 were created as described previously (Akbulut et al., 2015; Ludlow et al., 2017; Rubaiy, Ludlow, Henrot, et al., 2017). TRPC5–C1 and TRPC4–C1 concatemers allow expression of functional channels with defined 2:2 stoichiometry that display ion permeability and current–voltage relationships distinct from those of homomeric TRPC4:C4 or TRPC5:C5 channels and consistent with those obtained upon co‐expression of TRPC1 with TRPC4 or TRPC5 (Ludlow et al., 2017; Rubaiy, Ludlow, Bon, & Beech, 2017; Rubaiy, Ludlow, Henrot, et al., 2017). Cells were cultured in DMEM‐F12 GlutaMAX (Invitrogen, Paisley, UK) containing 10% FBS (Sigma‐Aldrich, Gillingham, UK), with the addition of blasticidin (10 μg·ml^−1) and zeocin (400 μg·ml^−1) to maintain the stable incorporation of the tetracycline repressor and the channel of interest, respectively. Expression of proteins was induced by the addition of tetracycline (1 μg·ml^−1, 24 hr). Cells were maintained in a humidified incubator with 5% CO2 at 37°C. HEK 293 cells stably expressing tetracycline‐regulated human http://www.guidetopharmacology.org/GRAC/ObjectDisplayForward?objectId=494 were prepared similarly and have also been described previously (McHugh, Flemming, Xu, Perraud, & Beech, 2003). For experiments using transient co‐expression of TRPC1 and TRPC5, HEK cells at 40–60% confluency were transfected with pIRES2‐AcGFP1 and pIRES2‐DsRed‐Express2 plasmids containing human TRPC1 and TRPC5, respectively, using Lipofectamine 3000 (ThermoFisher Scientific, Yokohama, Japan). All experiments using transient expression were performed within 48 hr after transfection. A498 cells were cultured in Minimum Essential Medium containing Earle's salts (ThermoFisher Scientific, Loughborough, UK), supplemented with 10% FBS and penicillin–streptomycin (100 units per ml^−1, 100 μg·ml^−1; ThermoFisher Scientific, Loughborough, UK). CHO cells stably expressing http://www.guidetopharmacology.org/GRAC/ObjectDisplayForward?objectId=510 were maintained in Ham's Nutrient Mixture F12 (ThermoFisher Scientific, Loughborough, UK) supplemented with 10% FBS, penicillin–streptomycin, and 1 mg·ml^−1 G418 (InvivoGen, San Diego, California, USA). For experiments using hTRPC3 and hTRPC6, WT HEK 293 cells were transfected with hTRPC3 (Naylor et al., 2016) or hTRPC6 (cloned into pcDNA3) using jetPRIME® transfection reagent (VWR, Lutterworth, UK). […]
compound,measurement,setting,value
Cn1c(=O)n(CCCO)c(=O)c2c1nc(Oc1ccc(Cl)c(OC(F)(F)F)c1)n2Cc1ccc(Cl)cc1 [AM237],Concentration leading to a sustained increase in [Ca2+]i,cells overexpressing TRPC5 or TRPC5-SYFP2,≥ 3 nM
same,EC50,"hTRPC5, response at 250–295 s vs baseline, read-out: EC50, activation (increase in [Ca2+]i)",20 nM
same,"Hill slope, activation",hTRPC5 concentration–response curve,1.7
same,EC50,"range over TRPC5 and TRPC5-SYFP2 experiments, read-out: EC50, TRPC5:C5 activation in [Ca2+]i assay (summary range)",15 to 20 nM and 10 to 20 nM
